The record followed here is ChEMBL document CHEMBL1124714, “Synthesis and in vitro activity of stereoisomers of a novel thromboxane receptor antagonist, (+-)-(5Z)-7-[3-endo-[(phenylsulfonyl)amino]bicyclo [2.2.1]hept-2-exo-yl]heptenoic acid” (J Med Chem, 1990).

Holding throughout (format): functional, organism-based
For experiment [1], the species on record is Homo sapiens. Kind of experiment: Inhibitory activity against aggregation of human platelet-rich plasma(induced by 4 uM of U-46619).
The species named for experiment [2] is Rattus norvegicus. As to the kind of experiment: Inhibitory activity against rat thoracic aorta(induced by 30 nM of U-46619).
Experiment [3] is filed under the species Rattus norvegicus. As to the kind of experiment: Inhibitory activity against aggregation of rat washed platelets (induced by 4 ug/mL of collagen).

Usually IC50 stands for the concentration at which inhibition is half-maximal. Low readings indicate higher potency, high ones lower potency. For `O=C(O)CCC/C=C\C[C@H]1C2CC[C@@H](C2)[C@@H]1NS(=O)(=O)c1ccccc1`, the IC50 in experiment [1] turned out to be 450 nM; in experiment [2], 1.4 nM; in experiment [3], 2.9 nM.
For the compound `O=C(O)COc1ccc(CCNS(=O)(=O)c2ccccc2)cc1` [SULOTROBAN], the values for the IC50 in experiment [1], in experiment [2] and in experiment [3] were 7200 nM, 1800 nM and 260 nM, respectively.
Taken in the same sequence, the figures for `O=C(O)CCC/C=C\C[C@@H]1C2CC[C@@H](C2)[C@@H]1NS(=O)(=O)c1ccccc1` were 2500 nM, 37.2 nM and 4.1 nM.
Taken in the same sequence, the figures for `O=C(O)CCC/C=C\C[C@@H]1C2CC[C@@H](C2)[C@H]1NS(=O)(=O)c1ccccc1` were 3300 nM, 16.9 nM and 2.9 nM.
In experiment [1], `O=C(O)CCC/C=C\C[C@@H]1[C@H](CNNC(=O)Nc2ccccc2)[C@H]2CC[C@H]1O2` came in with an IC50 of 60 nM.
